Test results from patent publication US20220073941A1, “HERBICIDE-RESISTANT CAMELINA SATIVA PLANTS, AND VARIANT CAMELINA ACETOHYDROXYACID SYNTHASE POLYPEPTIDES” (priority 2019, published 2022).
Several values for one entry are separate records, joined by “and”; a condition that tells them apart may be missing. Identical values can stand only once.

How the values were obtained:
Test in all cases: AHAS product feedback inhibition assay (leucine, isoleucine, valine)
Type in all cases: biochemical, Camelina sativa
Conditions in all cases: for % activity (AHAS activity as % of control): control 100 mM pyruvate, no added amino acid, per experiment (Exp. 1-3); for % activity (AHAS activity as % of control), means: means of 3 experiments; for Absorbance at 530 nm (AHAS product feedback inhibition assay, raw data), Avg: average of replicates per experiment; for Absorbance at 530 nm (AHAS product feedback inhibition assay, raw data): individual replicates, experiments 1-3
[1] = system: AHAS, enzyme extract of SRS 934
Method: (§1) Briefly, for each of the three comparators, leaf and stem (petiole) material was bulk-harvested at the 3-4 leaf stage from at least 30 plantlets, snap-frozen in liquid nitrogen, and stored at −80° C. The AHAS in vitro assay was conducted according to the method of Singh et al (1988), with modifications by Yu (2010) and Rustgi (2014). For each comparator, 4 grams of frozen material were ground to a fine powder with a mortar and pestle in liquid nitrogen and homogenized in 1 volume of cold extraction buffer containing 100 mM potassium phosphate buffer (pH7.5), 10 mM sodium pyruvate, 5 mM MgCl2, 100 μM flavin adenine dinucleotide (FAD), and 10% glycerol. Four 2-mL microcentrifuge tubes were used for each comparator. The homogenate was centrifuged at 13,000 rpm for 10 min at 4° C., supernatant collected and re-centrifuged for an additional 10 minutes under the same conditions. For each tube, 1 mL of supernatant was pipetted into a new 2-mL microcentrifuge tube, and protein was precipitated by the addition of 1 mL of saturated ammonium sulfate. The solution was mixed well by vortex and allowed to stand on ice for 20 minutes, then centrifuged at 13,000 rpm at 4° C. The protein pellet was resuspended in 300 μL of reaction buffer containing 50 mM potassium phosphate buffer (pH7.5), 100 mM sodium pyruvate, 10 mM MgCl2, 1 mM EDTA, 10 μM FAD, 100 mM NaCl, and 1 mM thiamine pyrophosphate. Tubes of each comparator were combined, mixed well, kept on ice and immediately used in the AHAS activity and feedback inhibition assays.
(§2) Total protein concentration of the crude extract was determined by the Bradford method (Bradford, 1976). All assays were conducted using 300 μg of total protein each.
(§3) The feedback inhibition assay was performed by combining equal amounts of extract and amino acids leucine, isoleucine, or valine, respectively, in concentrations of 0.1 mM, 1 mM, 10 mM and 100 mM, according to Yu et al. (2010). The reaction mixture contained 50 μL enzyme extract and 50 μL 100 mM sodium pyruvate and inhibitor amino acid. The reaction was incubated at 37° C. for 60 minutes, then stopped and acetolactate converted to acetoin with the addition of 20 μL of 6 N H2SO4 and incubated at 60° C. for 15 minutes. A separate background “blank” was included for each sample group by adding 20 μL of 6 N H2SO4 prior to the addition of the enzyme extracts. Then, 95 μL of 0.55% w/v creatine solution and 95 μL of α-naphthol solution (5.5% w/v in 5 N NaOH) were added and the mixture incubated at 60° C. for a further 15 minutes. After cooling to room temperature for 15 minutes, enzyme activity was determined colorimetrically by reading the absorbance at 530 nm. Three independent experiments were conducted. Experiment 1 and 2 each contained 2 technical replicates, while experiment 3 included 3 technical replicates.

[2] = system: AHAS, enzyme extract of MIDAS™
Method: as §1, §2, §3

[3] = system: AHAS, enzyme extract of 14CS0851-01-14
Method: as §1, §2, §3

[4] = 1 mM amino acid final concentration
[5] = 10 mM amino acid final concentration
[6] = 100 mM amino acid final concentration

Row | % activity (AHAS activity as % of control) ([1]; 1 mM final concentration) | % activity (AHAS activity as % of control), means ([1]; 1 mM final concentration) [%] | % activity (AHAS activity as % of control) ([1]; 10 mM final concentration) | % activity (AHAS activity as % of control), means ([1]; 10 mM final concentration) [%] | % activity (AHAS activity as % of control) ([1]; 100 mM final concentration) | % activity (AHAS activity as % of control), means ([1]; 100 mM final concentration) [%] | % activity (AHAS activity as % of control) ([2]; 1 mM final concentration) | % activity (AHAS activity as % of control), means ([2]; 1 mM final concentration) [%] | % activity (AHAS activity as % of control) ([2]; 10 mM final concentration) | % activity (AHAS activity as % of control), means ([2]; 10 mM final concentration) [%] | % activity (AHAS activity as % of control) ([2]; 100 mM final concentration) | % activity (AHAS activity as % of control), means ([2]; 100 mM final concentration) [%] | % activity (AHAS activity as % of control) ([3]; 1 mM final concentration) | % activity (AHAS activity as % of control), means ([3]; 1 mM final concentration) [%] | % activity (AHAS activity as % of control) ([3]; 10 mM final concentration) | % activity (AHAS activity as % of control), means ([3]; 10 mM final concentration) [%] | % activity (AHAS activity as % of control) ([3]; 100 mM final concentration) | % activity (AHAS activity as % of control), means ([3]; 100 mM final concentration) [%] | Structure (SMILES) | also measured
1 | 51.5% and 83.5% and 45.2% | 60.1 | 45.1% and 70.4% and 43.0% | 52.8 | 37.2% and 59.1% and 40.6% | 45.7 | 50.4% and 63.2% and 45.2% | 52.9 | 39.8% and 58.2% and 39.6% | 45.9 | 33.2% and 53.3% and 38.1% | 41.6 | 48.8% and 63.7% and 57.9% | 56.8 | 41.6% and 58.1% and 39.5% | 46.4 | 34.2% and 52.1% | 40.2 | CC(C)C[C@H](N)C(=O)O [Leu] | –
2 | 58.3% and 47.9% and 78.7% | 61.7 | 46.5% and 47.0% and 77.8% | 57.1 | 41.0% and 35.4% and 61.7% | 46.1 | 55.6% and 49.8% and 71.2% | 58.9 | 48.0% and 47.5% and 67.0% | 54.2 | 40.7% and 37.8% and 58.2% | 45.6 | 51.0% and 49.1% and 88.5% | 62.8 | 46.9% and 45.0% and 76.1% | 56.0 | 35.5% and 34.8% and 66.2% | 45.5 | CC(C)[C@H](N)C(=O)O [Val] | –
3 | – | – | – | – | – | – | – | – | – | – | – | – | – | – | – | – | – | – | CC[C@H](C)[C@H](N)C(=O)O [isoleucine] | Absorbance at 530 nm (AHAS product feedback inhibition assay, raw data), Avg [1, 4]: 0.2535 and 0.224 and 0.115; Absorbance at 530 nm (AHAS product feedback inhibition assay, raw data) [1, 4]: 0.251 and 0.256 and 0.245 and 0.203 and 0.120 and 0.111 and 0.114; Absorbance at 530 nm (AHAS product feedback inhibition assay, raw data), Avg [1, 5]: 0.234 and 0.187 and 0.093; Absorbance at 530 nm (AHAS product feedback inhibition assay, raw data) [1, 5]: 0.233 and 0.235 and 0.219 and 0.154 and 0.091 and 0.089 and 0.100; Absorbance at 530 nm (AHAS product feedback inhibition assay, raw data), Avg [1, 6]: 0.186 and 0.156 and 0.069; Absorbance at 530 nm (AHAS product feedback inhibition assay, raw data) [1, 6]: 0.196 and 0.176 and 0.177 and 0.134 and 0.065 and 0.069 and 0.073; Absorbance at 530 nm (AHAS product feedback inhibition assay, raw data), Avg [2, 4]: 0.327 and 0.238 and 0.141; Absorbance at 530 nm (AHAS product feedback inhibition assay, raw data) [2, 4]: 0.306 and 0.348 and 0.271 and 0.204 and 0.136 and 0.138 and 0.149; Absorbance at 530 nm (AHAS product feedback inhibition assay, raw data), Avg [2, 5]: 0.2675 and 0.192; Absorbance at 530 nm (AHAS product feedback inhibition assay, raw data) [2, 5]: 0.275 and 0.208 and 0.176 and 0.100 and 0.107 and 0.102; Absorbance at 530 nm (AHAS product feedback inhibition assay, raw data), Avg [2, 6]: 0.195 and 0.077; Absorbance at 530 nm (AHAS product feedback inhibition assay, raw data) [2, 6]: 0.194 and 0.176 and 0.149 and 0.080 and 0.075 and 0.078; Absorbance at 530 nm (AHAS product feedback inhibition assay, raw data), Avg [3, 4]: 0.296 and 0.229 and 0.105; Absorbance at 530 nm (AHAS product feedback inhibition assay, raw data) [3, 4]: 0.305 and 0.287 and 0.238 and 0.220 and 0.106 and 0.104; Absorbance at 530 nm (AHAS product feedback inhibition assay, raw data), Avg [3, 5]: 0.209 and 0.186 and 0.088; Absorbance at 530 nm (AHAS product feedback inhibition assay, raw data) [3, 5]: 0.217 and 0.201 and 0.200 and 0.171 and 0.087 and 0.082 and 0.094; Absorbance at 530 nm (AHAS product feedback inhibition assay, raw data), Avg [3, 6]: 0.182 and 0.145 and 0.061; Absorbance at 530 nm (AHAS product feedback inhibition assay, raw data) [3, 6]: 0.188 and 0.176 and 0.70 and 0.120 and 0.061 and 0.072 and 0.052; sensitivity of AHAS to feedback inhibition, comparison of enzyme extracts ([3]; extracts of 14CS0851-01-14, SRS 934 and MIDAS™ compared, 1 mM, 10 mM, 100 mM): no significant difference
